US9981988B2, “Polymorphic forms and co-crystals of a c-Met inhibitor” (AMGEN, INC., priority 2014, dated 2018)

Experiments:
Type in all cases: physicochemical
[1] = Photostability of solid powder (1×ICH dose UV and visible light), HPLC; conditions: for degradation: 1×ICH dose, clear glass vials
Method: (§1) High performance liquid chromatography (HPLC) analyses were performed on an Agilent 1100 or 1200 series HPLC equipped with a binary pump, diode-array detector, thermostated column compartment, and auto sampler. Separation and elution was achieved using a reverse-phase column and 0.1% triflouroacetic acid/water/acetonitrile mobile phase.
As shown in the table below minimal degradation, 0.4% and 0.2%, was detected in samples in clear glass vials under UV and visible light, respectively.

[2] = Dynamic vapor sorption / moisture sorption
Method: Moisture sorption data was collected using a Surface Measurement Systems DVS-Advantage instrument. Equilibrium criteria were set at ±0.002% weight change in 5 minutes with a maximum equilibrium time of 360 minutes.

[3] = Solid state stability under accelerated stability testing conditions, HPLC
Method: as §1
Solid samples of the free base monohydrate form of Compound M were placed under accelerated stability testing conditions (25° C./60% RH, 40° C./75% RH and 60° C./ambient RH) for 12 weeks.

[4] = Equilibrium solubility in water and aqueous media; conditions: water, 22.5 °C, thermodynamic from solid
[5] = Solubility in organic solvents; conditions: 20 °C, thermodynamic from solid, 20 to 25° C., at least 12 hours
Method: In all studies, excess solid of the compound was allowed to equilibrate for at least 12 hours while stirring.

[6] = Equilibrium solubility in water and aqueous media; conditions: 22.5 °C, thermodynamic from solid
Method: In all studies, excess solid of the compound was allowed to equilibrate at a temperature in the range of about 20 to 25° C. for 12-48 hours while stirring.

[7] = Visible (1200 klux × h), Amber vial
[8] = Visible (1200 klux × h), Clear vial

## COCCOc1cnc2ccn([C@H](C)c3nnc4c(F)cc(-c5cnn(C)c5)cn34)c(=O)c2c1 [free base monohydrate form of Compound M, 6-{(1R)-1-[8-fluoro-6-(1-methyl-1H-pyrazol-4-yl)[1,2,4]triazolo[4,3-a]pyridin-3-yl]ethyl}-3-(2-methoxyethoxy)-1,6-naphthyridin-5(6H)-one]
[1]; 1×ICH dose for UV and visible light, amber glass vials
  chemical degradation: no chemical degradation
[1]; UV (200 W × h/m^2), Amber vial
  Area % (215 nm), peak No MS signal, RRT 0.80: <0.01 Area %
  Area % (215 nm), peak m/z 390, RRT 0.84: 0.06 Area %
  Area % (215 nm), peak m/z 520 [M + Na]^+, RRT 0.83: <0.01 Area %
  Area % (215 nm), peak m/z 581, RRT 0.82: <0.01 Area %
  Area % (215 nm), peak m/z 638, RRT 1.16: 0.05 Area %
  Area % (215 nm), peak monohydrate, RRT 1.00: 99.89 Area %
  Total Impurities, Area % (215 nm): 0.11 Area %
[1]; UV (200 W × h/m^2), Clear vial
  Area % (215 nm), peak No MS signal, RRT 0.80: 0.02 Area %
  Area % (215 nm), peak m/z 390, RRT 0.84: 0.19 Area %
  Area % (215 nm), peak m/z 520 [M + Na]^+, RRT 0.83: 0.06 Area %
  Area % (215 nm), peak m/z 581, RRT 0.82: 0.05 Area %
  Area % (215 nm), peak m/z 638, RRT 1.16: 0.04 Area %
  Area % (215 nm), peak monohydrate, RRT 1.00: 99.64 Area %
  Total Impurities, Area % (215 nm): 0.36 Area %
[1]; UV light
  degradation: 0.4%
[1]; [7]
  Area % (215 nm), peak No MS signal, RRT 0.80: <0.01 Area %
  Area % (215 nm), peak m/z 390, RRT 0.84: 0.05 Area %
  Area % (215 nm), peak m/z 520 [M + Na]^+, RRT 0.83: <0.01 Area %
  Area % (215 nm), peak m/z 581, RRT 0.82: <0.01 Area %
  Area % (215 nm), peak m/z 638, RRT 1.16: 0.05 Area %
  Area % (215 nm), peak monohydrate, RRT 1.00: 99.89 Area %
  Total Impurities, Area % (215 nm): 0.11 Area %
[1]; [8]
  Area % (215 nm), peak No MS signal, RRT 0.80: <0.01 Area %
  Area % (215 nm), peak m/z 390, RRT 0.84: 0.13 Area %
  Area % (215 nm), peak m/z 520 [M + Na]^+, RRT 0.83: <0.01 Area %
  Area % (215 nm), peak m/z 581, RRT 0.82: <0.01 Area %
  Area % (215 nm), peak m/z 638, RRT 1.16: 0.04 Area %
  Area % (215 nm), peak monohydrate, RRT 1.00: 99.83 Area %
  Total Impurities, Area % (215 nm): 0.17 Area %
[1]; visible light
  degradation: 0.2%
[2]; between about 40% and about 90% relative humidity
  total weight gain: about 0.2 wt. %
[2]; dynamic vapor sorption
  hygroscopicity: non-hygroscopic
[3]; 25° C./60% RH, 40° C./75% RH and 60° C./ambient RH for 12 weeks
  changes in solid state properties: no changes in solid state properties were observed
[3]; Initial
  Area % (215 nm), peak 2, RRT 1.09: <0.1 Area %
  Area % (215 nm), peak 3, RRT 1.25: <0.1 Area %
  Area % (215 nm), peak 4, RRT 1.53: <0.1 Area %
  Area % (215 nm), peak monohydrate, RRT 1.00: 100.0 Area %
  Total Impurities, Area % (215 nm): <0.1 Area %
[3]; Week 2, 25/60
  Area % (215 nm), peak 2, RRT 1.09: 0.27 Area %
  Area % (215 nm), peak 3, RRT 1.25: 0.28 Area %
  Area % (215 nm), peak 4, RRT 1.53: 0.28 Area %
  Area % (215 nm), peak monohydrate, RRT 1.00: 99.18 Area %
  Total Impurities, Area % (215 nm): 0.82 Area %
[3]; Week 2, 40/75
  Area % (215 nm), peak 2, RRT 1.09: 0.31 Area %
  Area % (215 nm), peak 3, RRT 1.25: 0.35 Area %
  Area % (215 nm), peak 4, RRT 1.53: <0.1 Area %
  Area % (215 nm), peak monohydrate, RRT 1.00: 99.35 Area %
  Total Impurities, Area % (215 nm): 0.65 Area %
[3]; Week 2, 60 C.
  Area % (215 nm), peak 2, RRT 1.09: 0.25 Area %
  Area % (215 nm), peak 3, RRT 1.25: 0.27 Area %
  Area % (215 nm), peak 4, RRT 1.53: 0.27 Area %
  Area % (215 nm), peak monohydrate, RRT 1.00: 99.21 Area %
  Total Impurities, Area % (215 nm): 0.79 Area %
[3]; Week 4, 25/60
  Area % (215 nm), peak 2, RRT 1.09: <0.1 Area %
  Area % (215 nm), peak 3, RRT 1.25: <0.1 Area %
  Area % (215 nm), peak 4, RRT 1.53: <0.1 Area %
  Area % (215 nm), peak monohydrate, RRT 1.00: 99.90 Area %
  Total Impurities, Area % (215 nm): 0.01 Area %
[3]; Week 4, 40/75
  Area % (215 nm), peak 2, RRT 1.09: <0.1 Area %
  Area % (215 nm), peak 3, RRT 1.25: <0.1 Area %
  Area % (215 nm), peak 4, RRT 1.53: <0.1 Area %
  Area % (215 nm), peak monohydrate, RRT 1.00: 99.86 Area %
  Total Impurities, Area % (215 nm): 0.14 Area %
[3]; Week 4, 60 C.
  Area % (215 nm), peak 2, RRT 1.09: <0.1 Area %
  Area % (215 nm), peak 3, RRT 1.25: <0.1 Area %
  Area % (215 nm), peak 4, RRT 1.53: <0.1 Area %
  Area % (215 nm), peak monohydrate, RRT 1.00: 99.90 Area %
  Total Impurities, Area % (215 nm): <0.1 Area %
[3]; Week 8, 25/60
  Area % (215 nm), peak 2, RRT 1.09: <0.1 Area %
  Area % (215 nm), peak 3, RRT 1.25: <0.1 Area %
  Area % (215 nm), peak 4, RRT 1.53: <0.1 Area %
  Area % (215 nm), peak monohydrate, RRT 1.00: 99.97 Area %
  Total Impurities, Area % (215 nm): <0.1 Area %
[3]; Week 8, 40/75
  Area % (215 nm), peak 2, RRT 1.09: <0.1 Area %
  Area % (215 nm), peak 3, RRT 1.25: <0.1 Area %
  Area % (215 nm), peak 4, RRT 1.53: <0.1 Area %
  Area % (215 nm), peak monohydrate, RRT 1.00: 99.92 Area %
  Total Impurities, Area % (215 nm): <0.1 Area %
[3]; Week 8, 60 C.
  Area % (215 nm), peak 2, RRT 1.09: <0.1 Area %
  Area % (215 nm), peak 3, RRT 1.25: <0.1 Area %
  Area % (215 nm), peak 4, RRT 1.53: <0.1 Area %
  Area % (215 nm), peak monohydrate, RRT 1.00: 99.97 Area %
  Total Impurities, Area % (215 nm): <0.1 Area %
[3]; Week 12, 25/60
  Area % (215 nm), peak 2, RRT 1.09: <0.1 Area %
  Area % (215 nm), peak 3, RRT 1.25: <0.1 Area %
  Area % (215 nm), peak 4, RRT 1.53: <0.1 Area %
  Area % (215 nm), peak monohydrate, RRT 1.00: 100.0 Area %
  Total Impurities, Area % (215 nm): <0.1 Area %
[3]; Week 12, 40/75
  Area % (215 nm), peak 2, RRT 1.09: <0.1 Area %
  Area % (215 nm), peak 3, RRT 1.25: <0.1 Area %
  Area % (215 nm), peak 4, RRT 1.53: <0.1 Area %
  Area % (215 nm), peak monohydrate, RRT 1.00: 100.0 Area %
  Total Impurities, Area % (215 nm): <0.1 Area %
[3]; Week 12, −20 C.
  Area % (215 nm), peak 2, RRT 1.09: <0.1 Area %
  Area % (215 nm), peak 3, RRT 1.25: <0.1 Area %
  Area % (215 nm), peak 4, RRT 1.53: <0.1 Area %
  Area % (215 nm), peak monohydrate, RRT 1.00: 100.0 Area %
  Total Impurities, Area % (215 nm): <0.1 Area %
[3]; over 12 weeks at 25° C. and 60% relative humidity or at 40° C. and 75% relative humidity
  physical form: remains in substantially the same physical form
[4]; pH 4.09, water, Sample 2, duration 138 h, isolation method 1, pH 4.09, about 20 to 25° C.
  solubility at 138 h: 259 µg/mL
[4]; pH 6.85, water, Sample 3, duration 69 h, isolation method 2, pH 6.85, about 20 to 25° C.
  solubility at 69 h: 262 µg/mL
[5]; aqueous with cosolvent or surfactant or cyclodextrin, 25% Dimethyl sulfoxide in water, solid form: monohydrate
  solubility: 590 µg/mL
[5]; aqueous with cosolvent or surfactant or cyclodextrin, 50% Dimethyl sulfoxide in water, solid form: monohydrate
  solubility: 1020 µg/mL
[5]; aqueous with cosolvent or surfactant or cyclodextrin, 75% Dimethyl sulfoxide in water, solid form: monohydrate
  solubility: 8450 µg/mL
[5]; organic solvent or mixture, Acetonitrile, solid form: monohydrate (extra peak observed)
  solubility: 127000 µg/mL
[5]; organic solvent or mixture, Ethanol, solid form: monohydrate
  solubility: 29700 µg/mL
[5]; organic solvent or mixture, Ethyl Acetate, solid form: monohydrate
  solubility: 20100 µg/mL
[5]; organic solvent or mixture, Isopropanol, solid form: monohydrate
  solubility: 8800 µg/mL
[5]; organic solvent or mixture, Methanol, solid form: monohydrate
  solubility: 53900 µg/mL
[5]; organic solvent or mixture, Methyl Ethyl Ketone, solid form: monohydrate + trace acetone solvate
  solubility: 45800 µg/mL
[5]; organic solvent or mixture, Toluene, solid form: monohydrate
  solubility: 1900 µg/mL
[6]; 0.01N HCl, pH 1.9, simulated gastric fluid, 0.01N HCl, pH 1.9, 20 to 25° C., 12-48 hours, read-out: Solubility
  solubility: 350 µg/mL
[6]; FaSIF, pH 6.8, fassif, FaSIF, pH 6.8, 20 to 25° C., 12-48 hours, read-out: Solubility
  solubility: 440 µg/mL
[6]; PBS, pH 6.9, aqueous buffer, PBS, pH 6.9, 20 to 25° C., 12-48 hours, read-out: Solubility
  solubility: 180 µg/mL
[6]; SGF, pH 2.1, aqueous with cosolvent or surfactant or cyclodextrin, SGF (0.25% (w/v) SDS 0.2% (w/v) NaCl in 0.01N HCl), pH 2.1, 20 to 25° C., 12-48 hours, read-out: Solubility
  solubility: 1440 µg/mL
[6]; aqueous medium, pH adjusted with HCl, pH 0.73, aqueous buffer, pH 0.73 (adjusted with HCl), read-out: solubility
  solubility: 9740 µg/mL
[6]; aqueous medium, pH adjusted with methane sulfonic acid, pH 0.8, aqueous buffer, pH 0.80 (adjusted with methane sulfonic acid), read-out: solubility
  solubility: 12400 µg/mL
[6]; water, pH 4.7, water, Sample 1, duration 40 h, isolation method 1, pH 4.70, about 20 to 25° C.
  solubility at 40 h: 253 µg/mL
[6]; water, water, water, pH about 4 to about 7, about 20° C. to about 25° C., read-out: aqueous solubility
  solubility: 260 µg/mL
